The results in this text go back to patent publication US5240925A (priority 1991, dated 1993).

Common to all, as to assay: whole plant or invertebrate
Holding throughout (type): in vivo

Experiment [1] deals with Erysiphe graminis (f. sp. tritici). The settings on record: Blumeria graminis, 192 h; read-out: percent disease control, WPM.
Another experiment has as its system Phytophthora infestans. The settings on record: in Solanum lycopersicum, 96 h, read-out: percent disease control, TLB.
Experiment [2] deals with Puccinia graminis (f. sp. tritici Race 15B-2). The settings on record: 240 h, read-out: percent disease control, WSR.
The next experiment concerns Piricularia oryzae. The settings on record: Pyricularia oryzae, 192 h, read-out: percent disease control, RB.
The test system of experiment [3] is Pseudoperonospora cubensis. The settings on record: in Cucumis sativus, 168 h, read-out: percent disease control, CDM.
Experiment [4] relates to Puccinia recondita (f. sp. tritici Races PKB and PLD). The settings on record: 240 h, read-out: percent disease control, WLR.

SMILES strings stand for the structures.

Regarding `CC1CN(CCCC(C#N)(Cn2cncn2)c2ccc(Cl)cc2)CC(C)O1` (centres unmarked) [Example 3, 1-[2-(4-Chlorophenyl)-2-cyano-5-(2,6-dimethyl-4-morpholinyl)pentyl]-1,2,4-triazole], the pest or weed control at 300 g/ha was found to be 0% in experiment [1]; 0% with Phytophthora infestans; 50% in experiment [2]; 0% in the experiment with Piricularia oryzae; 0% in experiment [3].

As for `COc1ccccc1C(C#N)(CC1CCCCO1)Cn1cncn1` (centres unmarked) [Example 14, 1-[2-Cyano-2-(2-methoxyphenyl)-3-(tetrahydropyran-2-yl)propyl]-1,2,4-triazole], the pest or weed control at 300 g/ha in experiment [1] came out at 99%; in the experiment with Phytophthora infestans, 0%; in experiment [4], 0%; in the experiment with Piricularia oryzae, 0%; in experiment [3] it was 0%.

As to `COc1ccccc1C(C#N)(Cc1ccccn1)Cn1cncn1` (centres unmarked) [Example 9, 1-[2-Cyano-2-(2-methoxyphenyl)-3-(2-pyridyl)propyl]-1,2,4-triazole], the pest or weed control at 150 g/ha was determined as 0% in experiment [1], 100% in the experiment with Phytophthora infestans, 0% in experiment [4] and 0% in the experiment on Piricularia oryzae.

Regarding `N#CC(CCCN1CCCCC1)(Cn1cncn1)c1ccc(Cl)cc1Cl` (centres unmarked) [Example 10, 1-[2-Cyano-2-(2,4-dichlorophenyl)-5-(1-piperidinyl)pentyl]-1,2,4-triazole], the pest or weed control at 300 g/ha in experiment [1] was found to be 75%; in experiment [4], 25%; in the experiment on Piricularia oryzae, 50%.

As to `N#CC(Cc1cccnc1)(Cn1cncn1)c1ccc(Cl)cc1` (centres unmarked) [Example 7, 1-[2-(4-Chlorophenyl)-2-cyano-3-(3-pyridyl)propyl]-1,2,4-triazole], the pest or weed control at 150 g/ha in experiment [1] was 85%; with Phytophthora infestans, 0%; in experiment [4] it was 0%; in the experiment on Piricularia oryzae, 0%.

For the molecule `N#CC(Cc1ccco1)(Cn1cncn1)c1ccc(Cl)cc1` (centres unmarked) [Example 12, 1-[2-(4-Chlorophenyl)-2-cyano-3-(2-furyl)propyl]-1,2,4-triazole], the pest or weed control at 150 g/ha in experiment [1] is 100%; in the experiment with Phytophthora infestans, 80%; in experiment [2], 50%; in experiment [4], 0%.

On to `N#CC(CCc1ccccn1)(Cn1cncn1)c1ccccc1` (centres unmarked) [Example 15, 1-[2-Cyano-2-phenyl-4-(2-pyridyl)butyl]-1,2,4-triazole], for which the pest or weed control at 300 g/ha amounted to 85% in experiment [1], 85% with Phytophthora infestans, 0% in experiment [4] and 0% in experiment [3].

For `N#CC(Cc1cccs1)(Cn1cncn1)c1ccc(Cl)cc1` (centres unmarked) [Example 13, 1-[2-(4-Chlorophenyl)-2-cyano-3-(2-thienyl)propyl]-1,2,4-triazole], the pest or weed control at 150 g/ha amounted to 100% in experiment [1], 0% in the experiment on Phytophthora infestans, 100% in experiment [2] and 0% in experiment [4]. Also, the pest or weed control at 300 g/ha (with Piricularia oryzae; in experiment [3]) was 0% in each case.

With `CC1CN(CCCCCCCCCCCC(C#N)(Cn2cncn2)c2ccc(Cl)cc2)CC(C)O1` (centres unmarked) [Example 6, 1-[2-(4-Chlorophenyl)-2-cyano-13-(2,6-dimethyl-4-morpholinyl)tridecyl]-1,2,4-triazole], the pest or weed control at 300 g/ha in experiment [1] was found to be 0%; in the experiment with Phytophthora infestans, 0%; in experiment [2], 80%; with Piricularia oryzae, 0%; in experiment [3], 0%.

In the case of `N#CC(CCN1CCOCC1)(Cn1cncn1)c1ccc(Cl)cc1` (centres unmarked) [Example 2, 1-[2-(4-Chlorophenyl)-2-cyano-4-(4-morpholinyl)butyl]-1,2,4-triazole], the pest or weed control at 300 g/ha was 50% in experiment [1]; 0% with Phytophthora infestans; 0% in experiment [2]; 0% with Piricularia oryzae; 0% in experiment [3].

`CN1CCCC(CC(C#N)(Cn2cncn2)c2ccc(Cl)cc2Cl)C1` (centres unmarked) [Example 11, 1-[2-Cyano-2-(2,4-dichlorophenyl)-3-(1-methylpiperidin-3-yl)propyl]-1,2,4-triazole]: the pest or weed control at 300 g/ha stood at 95% in experiment [1]; 0% with Phytophthora infestans; 25% in experiment [4]; 0% in the experiment with Piricularia oryzae; 50% in experiment [3].

Consider `N#CC(CCc1cccs1)(Cn1cncn1)c1ccc(Cl)cc1` (centres unmarked) [Example 8, 1-[2-(4-Chlorophenyl)-2-cyano-4-(2-thienyl)butyl]-1,2,4-triazole], for which the pest or weed control at 150 g/ha in experiment [1] amounted to 95%; with Phytophthora infestans, 80%; in experiment [2], 95%; in experiment [4], 95%; in the experiment on Piricularia oryzae, 0%; in experiment [3] it was 100%.

Turning to `N#CC(CC1CCCO1)(Cn1cncn1)c1ccccc1` (centres unmarked) [Example 1, 1-[2-Cyano-2-phenyl-3-(tetrahydrofuran-2-yl)propyl]-1,2,4-triazole], the pest or weed control at 225 g/ha in experiment [1] amounted to 100%; with Phytophthora infestans, 5%; in experiment [4] it was 100%; with Piricularia oryzae it was 100%; in experiment [3] it was 10%.

Consider `CC1CN(CCC(C#N)(Cn2cncn2)c2ccc(Cl)cc2)CC(C)O1` (centres unmarked) [Example 4, 1-[2-(4-Chlorophenyl)-2-cyano-4-(2,6-dimethyl-4-morpholinyl)butyl]-1,2,4-triazole], for which the pest or weed control at 300 g/ha in experiment [1] came out at 0%; in the experiment with Phytophthora infestans, 0%; in experiment [2], 100%; in the experiment on Piricularia oryzae it was 0%; in experiment [3] it was 0%.

For `CC1CN(CCCCC(C#N)(Cn2cncn2)c2ccc(Cl)cc2)CC(C)O1` (centres unmarked) [Example 5, 1-[2-(4-Chlorophenyl)-2-cyano-6-(2,6-dimethyl-4-morpholinyl)hexyl]-1,2,4-triazole], the pest or weed control at 300 g/ha was found to be 0% in experiment [1]; 0% in the experiment on Phytophthora infestans; 80% in experiment [2]; 0% in the experiment with Piricularia oryzae; 0% in experiment [3].
